Experimental data from US6723716B1, “7-acylamino-3-heteroarylthio-3-cephem carboxylic acid antibiotics and prodrugs thereof” (Essential Therapeutics, Inc., priority 1999, dated 2004).
Converted amounts (≈) assume the structure as drawn. Where two headings read alike, the source gives them in different places.

How the values were obtained:
E. coli ATCC25992 = assay: Broth microdilution MIC (NCCLS); type: cell-based; conditions: Escherichia coli
Protocol: (§1) Compounds were evaluated for antimicrobial activity against a panel of bacterial strains using a broth microdilution assay performed as recommended by the NCCLS (1). The minimum inhibitory concentration (MIC) was defined as the lowest concentration of drug which prevented the growth of the bacteria.
(§2) For this primary panel, the assay was performed in Mueller-Hinton Broth (MHB) with a final bacterial inoculum of 5×10^5 CFU/mL (from an early-log phase culture) and a final volume of 100 μL. Control drugs, including imipenem, vancomycin, Penicillin G, dicloxacillin (vs. MSSA ATCC29213 only), and new compounds were prepared at a concentration equivalent to 2-fold the desired final concentration. Dilution of compounds were prepared directly in the plates by serial 2-fold dilution using a multichannel pipette. Positive and negative growth control were included in each plate.
(§3) The bacterial inocula were prepared as follows. For each strain one isolated colony was used to inoculate a volume of 8 mL of Mueller-Hinton broth and these cultures were incubated overnight (20 h) at 35° C. in a shaking incubator. At the exception of Enterococcus strains, culture were then diluted 1:10 and allowed to grow for an additional one hour at 35° C. in a shaking incubator. The inocula were prepared by diluting the early log-phase (1 h) cultures 1:1000 with fresh Mueller-Hinton broth. E. faecium and E. faecalis were prepared by diluting overnight cultures 1:333 and 1:666, respectively, with fresh Mueller-Hinton broth. A volume of 50 μL of the inocula was added to each well. […] The exact inocula were determined by applying 10 μL of 10-fold serial dilution of the bacterial suspensions on TSA. After overnight incubation at 35° C., colony forming units were manually counted.
(§4) Microtiter plates were incubated during 24 h at 35° C. and were read using a microtiterplate reader (Molecular Devices) at 650 nm as well as by visual observation using a microtiterplate reading mirror.

E. faecalis ATCC 29212 = assay: Broth microdilution MIC (NCCLS); type: cell-based; conditions: Enterococcus faecalis, ATCC29212
Protocol: as §1, §2, §3, §4

E. faecalis VanB (Van^R) = assay: Broth microdilution MIC (NCCLS); type: cell-based; conditions: Enterococcus faecalis
Protocol: as §1, §2, §3, §4

E. faecium A491 (Amp^R) = assay: Broth microdilution MIC (NCCLS); type: cell-based; conditions: Enterococcus faecium
Protocol: as §1, §2, §3, §4

E. faecium ATCC 35667 = assay: Broth microdilution MIC (NCCLS); type: cell-based; conditions: Enterococcus faecium, ATCC35667
Protocol: as §1, §2, §3, §4

E. faecium VanA (Van^R) = assay: Broth microdilution MIC (NCCLS); type: cell-based; conditions: Enterococcus faecium
Protocol: as §1, §2, §3, §4

P. aeruginosa ATCC 27853 = assay: Broth microdilution MIC (NCCLS); type: cell-based; conditions: Pseudomonas aeruginosa, ATCC27853
Protocol: as §1, §2, §3, §4

[1] = system: S. aureus 76 (Meth^R)(lac^+); assay: Broth microdilution MIC (NCCLS); type: cell-based; conditions: Staphylococcus aureus
Protocol: as §1, §2, §3, §4

[2] = system: S. aureus ATCC 13709 (Meth^S); assay: Broth microdilution MIC (NCCLS); type: cell-based; conditions: Staphylococcus aureus
Protocol: as §1, §2, §3, §4

S. aureus ATCC 29213 = assay: Broth microdilution MIC (NCCLS); type: cell-based; conditions: Staphylococcus aureus
Protocol: as §1, §2, §3, §4

[3] = system: S. aureus ATCC 33593 (Meth^R); assay: Broth microdilution MIC (NCCLS); type: cell-based; conditions: Staphylococcus aureus, ATCC33593
Protocol: as §1, §2, §3, §4

[4] = system: S. aureus Col (Meth^R)(lac^−); assay: Broth microdilution MIC (NCCLS); type: cell-based; conditions: Staphylococcus aureus
Protocol: as §1, §2, §3, §4

[5] = system: S. aureus Col8A (Meth^S)(lac^−); assay: Broth microdilution MIC (NCCLS); type: cell-based; conditions: Staphylococcus aureus
Protocol: as §1, §2, §3, §4

[6] = system: S. aureus PC1 (Meth^S)(lac^+); assay: Broth microdilution MIC (NCCLS); type: cell-based; conditions: Staphylococcus aureus
Protocol: as §1, §2, §3, §4

[7] = system: S. aureus Spain #356 (Meth^R); assay: Broth microdilution MIC (NCCLS); type: cell-based; conditions: Staphylococcus aureus, 24 h
Protocol: as §1, §2, §3, §4

[8] = system: S. haemolyticus 05 (Meth^R); assay: Broth microdilution MIC (NCCLS); type: cell-based; conditions: Staphylococcus haemolyticus
Protocol: as §1, §2, §3, §4

S. aureus ATCC29213 = assay: Human serum binding effect: MIC with and without human serum; type: cell-based, Staphylococcus aureus; conditions: 1:1 human serum:MHB
Summary of the method: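 Serum binding was estimated as the ratio of S. aureus ATCC29213 MIC in 1:1 human serum:Mueller-Hinton broth to MIC without serum. Compounds were serially 2-fold diluted, and wells received an early-log-phase inoculum at 1×10^6 CFU/mL final. Inoculum size was checked by colony counts on TSA after overnight incubation at 35 °C.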

human serum proteins = assay: Serum binding determination by ultrafiltration/HPLC; type: in vitro ADME; conditions: by HPLC
Protocol: The more accurate measurement of binding of selected cephalosporin compounds was performed using HPLC as described below.
1. Serum is placed in a shaking water bath preheated to 37±2° C. for 5 to 10 minutes to heat serum to 37° C. Serum pH is measured and recorded, while serum is 37° C. using pH paper. Measurements are taken twice, 3 minutes apart. If the pH is not 7.4±0.4 then the pH is adjusted by blowing 5% CO2/95% O2 over the serum. After blowing for several minutes, serum is heated to 37° C. and measurements are taken twice, 3 minutes apart using pH paper to determine the pH. Store at 4° C. The serum is stable for 7 days. Always check the pH before each use.
2. Before any centrifugation, the centrifuge temperature must be adjusted to 25±2° C. Preheat the centrifuge by spinning for 45 minutes at the same speed to be used in the assay (1900 g) with two tubes of water in the rotor and the temperature set to 25° C. When the centrifuge stops immediately check the temperature of the tubes of water with a calibrated thermometer. The temperature of the tubes of water must be 25±2° C. […] Continue spinning and measuring the temperature and adjusting the setting until the temperature is 25±2° C.
3. Prepare blank ultrafiltrate by pipetting blank pH 7.4 serum into an Amicon Centrifree Micropartition devices, centrifuge: fixed angle rotor, 1900 g, 25° C. for 20 minutes. Heat ultrafiltrate in a shaking water bath preheated to 37° C. Measure ultrafiltrate pH and adjust to the pH of the serum (7.4±0.2).
4. Pipette 190 ul of blank ultrafiltrate into a set of labeled 1.7 mL polypropylene microfuge tubes for 3 of each level. Pipette 10 μL of the appropriate standard stock 50, 200, 1000 μg/mL to make standards 2.5, 10, and 50 μg/mL respectively. Vortex each tube well. One set of the standard samples are mixed 1:1 with 0.2 M acetic acid and injected onto the HPLC (MSTD). These samples are the membrane standards and will be used to compare to the other standards. Pipette 190 ul of ultrafiltrate and spike with 10 ul of whatever solution (e.g. water) the standards are prepared in to make the zero standard.
5. Pipette 475 μL of blank heated pH 7.4 serum into a set of labeled 1.7 mL polypropylene microfuge tubes for 2 of each (Serum A and Serum B). Pipette 25 μL of the 1000 μg/mL standard stock into each tube, vortex each tube well to make serum standard 50 μg/mL. Remove 100 μL of serum and deproteinate with 200 μL 4% TCA while vortexing to make serum time 0 (serum 50, T0). Place serum tubes in a shaking water bath at 37° C. for 10 minutes. Pipet 100 μL of serum out and deproteinate with 200 μL 4% TCA, to make serum time 10 min (serum 50, T10). Pipet 200 ul serum standard 50 μg/mL into an ultrafiltration device, which is not treated with TCA, to determine free drug in samples (Rat Serum 50).
6. Transfer serum and standard samples to labeled Amicon Centrifree Micropartition filters, and centrifuge: 1900 g, 25° C. for 10 minutes. The extracted serum samples (T0 and T10) are spun down and supernatant is loaded into HPLC vials.
7. 100 μL of ultrafiltrate sample and 100 μL of 0.2 M acetic acid were mixed together to stabilize the compound in ultrafiltrate.
8. Transfer entire stabilized ultrafiltrate solution to a labeled autoinjector HPLC vial cap with Teflon septa, and inject on HPLC.
Peak height or area is used in a weighted linear regression.

Compound | MIC (E. coli ATCC25992) [µg/mL] | MIC (E. faecalis ATCC 29212) [µg/mL] | MIC (E. faecalis VanB (Van^R)) [µg/mL] | MIC (E. faecium A491 (Amp^R)) [µg/mL] | MIC (E. faecium ATCC 35667) [µg/mL] | MIC (E. faecium VanA (Van^R)) [µg/mL] | MIC (P. aeruginosa ATCC 27853) [µg/mL] | MIC [1] [µg/mL] | MIC ([2]; ATCC13709, S. aureus ATCC 13709 (Meth^S), read-out: MIC) [µg/mL] | MIC (S. aureus ATCC 29213; ATCC29213, S. aureus ATCC 29213, Mueller-Hinton broth, 24 h at 35° C., read-out: MIC) [µg/mL] | MIC [3] [µg/mL] | MIC [4] [µg/mL] | MIC [5] [µg/mL] | MIC [6] [µg/mL] | MIC [7] [µg/mL] | MIC [8] [µg/mL] | Human serum binding effect (ratio of MIC value determined with and without human serum added) (S. aureus ATCC29213) | MIC ([2]; ATCC13709) [µg/mL] | MIC (S. aureus ATCC 29213; ATCC29213, 24 h) [µg/mL] | Serum Binding human (% of compound bound to serum) (human serum proteins) [%]
NCCSCc1nnc(SC2=C(C(=O)O)N3C(=O)[C@@H](NC(=O)/C(=N\O)c4nc(N)sc4Cl)[C@H]3SC2)s1 [Cmpd 10, (7R)-7-[(Z)-2-(2-amino-5-chlorothiazol-4-yl)-2-(hydroxyimino)acetamido]-3-(2-aminoethylthiomethyl-1,3,4-thiadiazol-5-ylthio)-3-cephem-4-carboxylic acid] | 1 (≈ 1.64 µM) | 0.13 (≈ 0.213 µM) | 0.25 (≈ 0.41 µM) | 8 (≈ 13.1 µM) | 1 (≈ 1.64 µM) | 2 (≈ 3.28 µM) | 16 (≈ 26.3 µM) | 2 (≈ 3.28 µM) | 0.13 (≈ 0.213 µM) | 0.5 (≈ 0.821 µM) | 2 (≈ 3.28 µM) | 2 (≈ 3.28 µM) | 0.25 (≈ 0.41 µM) | 0.5 (≈ 0.821 µM) | 4 (≈ 6.57 µM) | 4 (≈ 6.57 µM) | 1 |  |  | 
NCCSCc1nc(Cl)sc1SC1=C(C(=O)O)N2C(=O)[C@@H](NC(=O)/C(=N\O)c3cccc(N)n3)[C@H]2SC1 [Cmpd 29, (7R)-7-[(Z)-2-(2-aminopyrid-6-yl)-2-(hydroxyimino)acetamido]-3-[2-chloro-4-(2-aminoethylthiomethyl)-1,3-thiazol-5-ylthio]-3-cephem-4-carboxylic acid] | 16 (≈ 26.6 µM) | 0.25 (≈ 0.415 µM) | 0.5 (≈ 0.83 µM) | > 32 | 2 (≈ 3.32 µM) | 4 (≈ 6.64 µM) | > 32 | 1 (≈ 1.66 µM) |  |  | 1 (≈ 1.66 µM) | 1 (≈ 1.66 µM) | 0.125 (≈ 0.208 µM) | 0.25 (≈ 0.415 µM) | 2 (≈ 3.32 µM) | 2 (≈ 3.32 µM) |  | 0.125 (≈ 0.208 µM) | 0.125 (≈ 0.208 µM) | 97
